By EC50 is commonly meant the concentration needed to bring the measured effect to its halfway point.

The subject of the assay is hypoxia-inducible endogenous VEGF expression. Put plainly: Hypoxia-inducible endogenous VEGF expression ELISA in HeLa cells, dose-response (EC50, Table 3). The following applies: Homo sapiens, read-out: ELISA EC50 μM. In general terms: ELISA stands for enzyme-linked immunosorbent assay.
Regarding `CN(C)CCCOc1ccc(C2c3[nH]c4ccc(Cl)cc4c3CCN2C(=O)Oc2ccc(Cl)cc2)cc1` (stereo not shown) [Compound 479], the EC50 is 0.04 to 0.2 µM.
For `CN1CCN(CCCCOc2ccc(C3c4[nH]c5ccc(Cl)cc5c4CCN3C(=O)Oc3ccc(F)cc3)cc2)CC1` (stereo not shown) [Compound 740], the EC50 is 0.04 to 0.2 µM.
Regarding `O=C(Oc1ccc(F)cc1)N1CCc2c([nH]c3ccc(Cl)cc23)C1c1ccc(OCC(O)CN2CCSCC2)cc1` (stereo not shown) [Compound 925], the EC50 was less than 0.008 µM.
With `O=C(Oc1ccc(Cl)cc1)N1CCc2c([nH]c3ccc(Cl)cc23)C1c1ccc(OCCCCN2CCOCC2)cc1` (stereo not shown) [Compound 702], the EC50 fell in the range of 0.008 to 0.04 µM.
On to `CN1CCN(CC(O)COc2ccc(C3c4[nH]c5ccc(Cl)cc5c4CCN3C(=O)Oc3ccc(F)cc3)cc2)CC1` (stereo not shown) [Compound 963], for which the EC50 is 0.008 to 0.04 µM.
As for `O=C(Oc1ccc(Cl)cc1)Oc1ccc(C2c3[nH]c4ccc(Cl)cc4c3CCN2C(=O)Oc2ccc(Cl)cc2)cc1` (stereo not shown) [Compound 578], the EC50 lay within 0.04 to 0.2 µM.
`CC(C)NCCCOc1ccc(C2c3[nH]c4ccc(Cl)cc4c3CCN2C(=O)Oc2ccc(Cl)cc2)cc1` (stereo not shown) [Compound 953]: the EC50 fell in the range of 0.008 to 0.04 µM.
For `COc1ccc(C2c3[nH]c4ccc(Cl)cc4c3CCN2C(=O)Oc2ccc(Cl)cc2)cc1` (stereo not shown) [Compound #10], the EC50 was less than 0.008 µM.
Turning to `O=C(CN1CCOCC1)Nc1ccc(C2c3[nH]c4ccc(Cl)cc4c3CCN2C(=O)Oc2ccc(Cl)cc2)cc1` (stereo not shown) [Compound 454], the EC50 lay in the range of 0.008 to 0.04 µM.
Regarding `CN1CCN(CCCCCCOc2ccc(C3c4[nH]c5ccc(Cl)cc5c4CCN3C(=O)Oc3ccc(Cl)cc3)cc2)CC1` (stereo not shown) [Compound 788], the EC50 lay within 0.008 to 0.04 µM.
For the compound `O=C(Oc1ccc(F)cc1)N1CCc2c([nH]c3ccc(Cl)cc23)C1c1ccc(OCCCCCCN2CCOCC2)cc1` (stereo not shown) [Compound 776], the concentration for a half-maximal effect (EC50) was less than 0.008 µM.
Take `CN1CCN(CCCCOc2ccc(C3c4[nH]c5ccc(Cl)cc5c4CCN3C(=O)Oc3ccc(Cl)cc3)cc2)CC1` (stereo not shown) [Compound 704]: the EC50 fell in the range of 0.04 to 0.2 µM.
On to `CN1CCN(CCCOc2ccc(C3c4[nH]c5ccc(Cl)cc5c4CCN3C(=O)Oc3ccc(F)cc3)cc2)CC1` (stereo not shown) [Compound 993], for which the EC50 was less than 0.008 µM.
On to `CN1CCCC(COc2ccc(C3c4[nH]c5ccc(Cl)cc5c4CCN3C(=O)Oc3ccc(F)cc3)cc2)C1` (stereo not shown) [Compound 932], for which the EC50 is less than 0.008 µM.
`CN1CCCC(COc2ccc(C3c4[nH]c5ccc(Cl)cc5c4CCN3C(=O)Oc3ccccc3Cl)cc2)C1` (stereo not shown) [Compound 976]: the EC50 lay in the range of 0.04 to 0.2 µM.
The result for `O=C(Oc1ccc(Cl)cc1)N1CCc2c([nH]c3ccc(Cl)cc23)C1c1ccc(OCCCN2CCSCC2)cc1` (stereo not shown) [Compound 933] reads less than 0.008 µM; that for `O=C(Oc1ccc(F)cc1)N1CCc2c([nH]c3ccc(Cl)cc23)C1c1ccc(OCCCN2CCSCC2)cc1` (stereo not shown) [Compound 991], 0.04 to 0.2 µM; that for `COCCCNCCCCOc1ccc(C2c3[nH]c4ccc(Cl)cc4c3CCN2C(=O)Oc2ccc(F)cc2)cc1` (stereo not shown) [Compound 737], 0.008 to 0.04 µM.
For `O=C1NC2CSC(CCCCC(=O)OCCOc3ccc(C4c5[nH]c6ccc(Cl)cc6c5CCN4C(=O)Oc4ccc(Cl)cc4)cc3)C2N1` (stereo not shown) [Compound 544] the value was less than 0.008 µM; for `O=C(Oc1ccc(F)cc1)N1CCc2c([nH]c3ccc(Cl)cc23)C1c1ccc(OCCCCN2CCCCC2)cc1` (stereo not shown) [Compound 739], less than 0.008 µM; for `O=C(Oc1ccc(F)cc1)N1CCc2c([nH]c3ccc(Cl)cc23)C1c1ccc(OCCCCCCNCCO)cc1` (stereo not shown) [Compound 772], less than 0.008 µM.
On to `CC(=O)N1CCN(CCCOc2ccc(C3c4[nH]c5ccc(Cl)cc5c4CCN3C(=O)Oc3ccc(F)cc3)cc2)CC1` (stereo not shown) [Compound 988], for which the EC50 was less than 0.008 µM.
The result for `CC(C)NCCCCCCOc1ccc(C2c3[nH]c4ccc(Cl)cc4c3CCN2C(=O)Oc2ccc(Cl)cc2)cc1` (stereo not shown) [Compound 784] reads less than 0.008 µM.
Take `O=C(Oc1ccc(Cl)cc1)N1CCc2c([nH]c3ccc(Cl)cc23)C1c1ccc(OCCCCN2CCCCC2)cc1` (stereo not shown) [Compound 703]: the EC50 is 0.008 to 0.04 µM.
For the compound `CN1CCN(CCCOc2ccc(C3c4[nH]c5ccc(Cl)cc5c4CCN3C(=O)Oc3ccc(Cl)cc3)cc2)CC1` (stereo not shown) [Compound 961], the EC50 was in the range of 0.008 to 0.04 µM.

Source of the values: patent US20120202801A1, “METHODS FOR TREATING BREAST CANCER” (priority 2009, published 2012).
